This experiment concerns the target T1, Tau P301L (Homo sapiens, UniProt P10636, P618L).
T1 construct: expressed in transfected cells
Description: In vitro tau degradation assay in CHOK1 Tau P301L cells (sarkosyl insoluble tau, WES). Format: cell-based. Conditions: CHO-K1, relative to DMSO doxycycline control, read-out: Tau Protein Degradation effect at 1 μM. As for the experimental part: Exemplary bifunctional molecules of the present disclosure are represented by the structures in Table 1, which includes associated data. In vitro tau protein degradation data in CHOK1 Tau P301L cells, as described below, is reported based on the remaining tau protein in the sarkosyl insoluble pellet following treatment of cells for 48 hours with test compound at the 1 μM concentration where the last 24 hours doxycycline was removed. The data are represented relative to DMSO doxycycline control: • A ≤50% of tau protein remaining (>50% of tau protein degraded) • B >50% of tau protein remaining ([…] of tau protein degraded)
Data for compounds in Table 1 was generated using in vitro tau Degradation Assay protocol as described in Methods for FIGS. 2A and 2B below.
FIGS. 2A and 2B. (2A) Tau expression was induced by addition (+) of doxycycline (1 μg/ml) to ChoK1-Tau P301L clone D1.
In vitro tau Degradation Assay for FIGS. 2A and 2B. T-Rex CHOK1 cells are maintained in Ham's F-12 Nutrient Mix (ThermoFisher) plus 10% Fetal Bovine Serum Tetracycline Negative (Corning) with 10 ug/mL Blasticidin S HCl (Gibco) and 200 ug/mL Zeocin (100 mg/mL, Invitrogen). A stable clone expressing Tau P301L in the presence of doxycycline (1 μg/ml), clone D1 was selected. Compounds were diluted to indicated concentrations and used to treat cells for the indicated times. Cells were harvested from either 96, 24, 6, or 10 cm dishes coated with Poly-D-Lysine (Corning) in ice cold PBS or Buffer H+HALT Protease and phosphatase inhibitors (Thermofisher). Sarkosyl Insoluble tau was isolated as described in Eckermann et al. and Greenberg and Davies, accordingly. WES™ capillary electrophoresis analysis was performed on the Sarkosyl Insoluble tau fraction using Tau1 antibody (Milipore) unless otherwise indicated, as specified in the manufacturers specification (ProteinSimple).

Setting [1] is: remaining tau protein in sarkosyl insoluble pellet, CHOK1 Tau P301L cells treated 48 hours with test compound at 1 μM, doxycycline removed for the last 24 hours.
Where [2] appears, read: CHOK1 Tau P301L cells, remaining tau in sarkosyl insoluble pellet, 48 hours with test compound at 1 μM, doxycycline removed for last 24 hours.

Molecules are shown by their SMILES. Read-outs that look alike come from different tables or passages of the source.

T1 sequence (P10636 1-441 isoform P10636-8 P301L): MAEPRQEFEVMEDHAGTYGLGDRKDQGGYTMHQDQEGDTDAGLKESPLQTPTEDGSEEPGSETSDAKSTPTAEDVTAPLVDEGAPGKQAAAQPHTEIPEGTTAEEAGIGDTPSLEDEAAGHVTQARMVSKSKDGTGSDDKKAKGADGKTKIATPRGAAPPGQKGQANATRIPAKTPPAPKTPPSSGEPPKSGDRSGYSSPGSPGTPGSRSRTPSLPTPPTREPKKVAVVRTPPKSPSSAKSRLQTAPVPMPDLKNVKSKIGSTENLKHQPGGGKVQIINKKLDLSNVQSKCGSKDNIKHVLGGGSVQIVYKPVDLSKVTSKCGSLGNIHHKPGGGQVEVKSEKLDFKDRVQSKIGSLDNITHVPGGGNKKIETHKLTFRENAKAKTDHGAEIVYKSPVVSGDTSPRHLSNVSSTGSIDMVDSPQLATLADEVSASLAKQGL

Turning to `O=C1CCC(N2C(=O)c3ccc(N4CCN(CCC5CCN(c6ncc(-c7ccc8c9cnccc9n(C(F)F)c8c7)cc6C(F)(F)F)CC5)CC4)cc3C2=O)C(=O)N1` (stereo not drawn) [Compound 489, 5-[4-[2-[1-[5-[5-(difluoromethyl)pyrido[4,3-b]indol-7-yl]-3-(trifluoromethyl)-2-pyridyl]-4-piperidyl]ethyl]piperazin-1-yl]-2-(2,6-dioxo-3-piperidyl)isoindoline-1,3-dione trifluroacetate], the remaining activity at 1 µM under setting [1] was less than 50%.

As to `Cc1ncsc1-c1ccc([C@H](C)NC(=O)[C@@H]2C[C@@H](O)CN2C(=O)[C@@H](c2cc(OCCN3CCN(CCN4CCC(O[C@H]5C[C@H](Oc6ccc(-c7ccc8c9cnccc9n(C)c8c7)cn6)C5)CC4)CC3)no2)C(C)C)cc1` [Compound 372, (2S,4R)-4-hydroxy-1-((R)-3-methyl-2-(3-(2-(4-(2-(4-((1r,3r)-3-((5-(5-methyl-5H-pyrido[4,3-b]indol-7-yl)pyridin-2-yl)oxy)cyclobutoxy)piperidin-1-yl)ethyl)piperazin-1-yl)ethoxy)isoxazol-5-yl)butanoyl)-N-((S)-1-(4-(4-methylthiazol-5-yl)phenyl)ethyl) pyrrolidine-2-carboxamide], the remaining activity at 1 µM under setting [1] was greater than 50%.

`O=C1CCC(N2C(=O)c3ccc(N4CCN(CCC5CC6(C5)CN(c5ccc(-c7ccc8c(c7)[nH]c7ccncc78)cn5)C6)CC4)cc3C2=O)C(=O)N1` (stereo not drawn) [Compound 599, 5-(4-(2-(2-(5-(5H-pyrido[4,3-b]indol-7-yl)pyridin-2-yl)-2-azaspiro[3.3]heptan-6-yl)ethyl)piperazin-1-yl)-2-(2,6-dioxopiperidin-3-yl)isoindoline-1,3-dione]: the remaining activity at 1 µM under setting [1] is less than 50%.

Regarding `Nc1cccc2cnc(-n3ccc4cc(OCCOCCOCCOCCOc5ccc6c(c5)C(=O)N(C5CCC(=O)NC5=O)C6=O)ncc43)cc12` (stereo not drawn) [Compound 353, 5-(2-(2-(2-(2-((1-(5-aminoisoquinolin-3-yl)-1H-pyrrolo[2,3-c]pyridin-5-yl)oxy)ethoxy)ethoxy)ethoxy)ethoxy)-2-(2,6-dioxopipieridin-3-yl)isoindoline-1,3-dione], the remaining activity at 1 µM under setting [1] is less than 50%.

As for `Cc1cnc(Nc2ccc3cnccc3c2)cc1N1CCC(CCN2CCN(c3ccc4c(c3)C(=O)N(C3CCC(=O)NC3=O)C4=O)CC2)CC1` (stereo not drawn) [Compound 447, 2-(2,6-dioxopiperidin-3-yl)-5-(4-(2-(1-(2-(isoquinolin-6-ylamino)-5-methylpyridin-4-yl)piperidin-4-yl)ethyl)piperazin-1-yl)isoindoline-1,3-dione], the remaining activity at 1 µM under setting [1] is less than 50%.

With `CN(C)c1ccn2cc(-c3ccc(OCCOCCOCCOc4ccc5c(c4)C(=O)N(C4CCC(=O)NC4=O)C5=O)cc3)nc2c1` (stereo not drawn) [Compound 440, 5-(2-(2-(2-(4-(7-(dimethylamino)imidazo [1,2-a]pyridin-2-yl)phenoxy)ethoxy)ethoxy)ethoxy)-2-(2,6-dioxopiperidin-3-yl)isoindoline-1,3-dione], the remaining activity at 1 µM under setting [1] was greater than 50%.

Consider `O=C1CCC(N2C(=O)c3cc(F)c(OCCN4CCC(O[C@H]5C[C@@H](N6CCC(c7ccc8c9cnccc9n(C(F)F)c8c7)CC6)C5)CC4)cc3C2=O)C(=O)N1` (stereo partly drawn) [Compound 644], for which the remaining activity at 1 µM under setting [2] is less than 50%.

For `O=C1CCC(N2C(=O)c3ccc(OCCN4CC5(C4)CN(C[C@H]4C[C@H](OC6CCN(c7ccn8c(n7)nc7ccccc78)CC6)C4)C5)cc3C2=O)C(=O)N1` (stereo partly drawn) [Compound 460, 5-(2-(6-(((1r,3r)-3-((1-(benzo[4,5]imidazo[1,2-a]pyrimidin-2-yl)piperidin-4-yl)oxy)cyclobutyl)methyl)-2,6-diazaspiro[3.3]heptan-2-yl)ethoxy)-2-(2,6-dioxopiperidin-3-yl)isoindoline-1,3-dione], under setting [1], the remaining activity at 1 µM was greater than 50%.

Regarding `Cn1c2ccncc2c2ccc(C3CCN(CCC4CCN(c5ccc6c(c5)C(=O)N(C5CCC(=O)NC5=O)C6=O)CC4)CC3)cc21` (stereo not drawn) [Compound 498, 2-(2,6-dioxopiperidin-3-yl)-5-(4-(2-(4-(5-methyl-5H-pyrido[4,3-b]indol-7-yl)piperidin-1-yl)ethyl)piperidin-1-yl)isoindoline-1,3-dione], the remaining activity at 1 µM under setting [1] is less than 50%.

On to `CC(C)(C1CCN(c2ncc(-c3ccc4c5cnccc5n(C(F)F)c4c3)cc2F)CC1)N1CCN(c2ccc3c(c2)C(=O)N(C2CCC(=O)NC2=O)C3=O)CC1` (stereo not drawn) [Compound 609, 5-(4-(2-(1-(5-(5-(difluoromethyl)-5H-pyrido[4,3-b]indol-7-yl)-3-fluoropyridin-2-yl)piperidin-4-yl)propan-2-yl)piperazin-1-yl)-2-(2,6-dioxopiperidin-3-yl)isoindoline-1,3-dione], for which the remaining activity at 1 µM under setting [2] was less than 50%.

For `O=C1CCC(N2C(=O)c3ccc(N4CCN(CC(F)(F)C5CCN(c6ccc(-c7ccc8c(c7)[nH]c7ccncc78)cn6)CC5)CC4)cc3C2=O)C(=O)N1` (stereo not drawn) [Compound 569, 5-(4-(2-(1-(5-(5H-pyrido[4,3-b]indol-7-yl)pyridin-2-yl)piperidin-4-yl)-2,2-difluoroethyl)piperazin-1-yl)-2-(2,6-dioxopiperidin-3-yl)isoindoline-1,3-dione], the remaining activity at 1 µM under setting [1] was less than 50%.

Regarding `O=C1CCC(N2Cc3nc(N4CCN(CCC5CCN(c6ncc(-c7ccc8c9cnccc9n(C(F)F)c8c7)cc6F)CC5)CC4)ccc3C2=O)C(=O)N1` (stereo not drawn) [Compound 607, 3-(2-(4-(2-(1-(5-(5-(difluoromethyl)-5H-pyrido[4,3-b]indol-7-yl)-3-fluoropyridin-2-yl)piperidin-4-yl)ethyl)piperazin-1-yl)-5-oxo-5,7-dihydro-6H-pyrrolo[3,4-b]pyridin-6-yl)piperidine-2,6-dione], the remaining activity at 1 µM under setting [2] was greater than 50%.

For the compound `Nc1cccc2cnc(-n3ccc4cc(N5CCC(CCN6CCN(c7ccc8c(c7)C(=O)N(C7CCC(=O)NC7=O)C8=O)CC6)CC5)ncc43)cc12` (stereo not drawn) [Compound 480, 5-[4-(2-[1-[1-(5-aminoisoquinolin-3-yl)pyrrolo[2,3-c]pyridin-5-yl]piperidin-4-yl]ethyl)piperazin-1-yl]-2-(2,6-dioxopiperidin-3-yl)isoindole-1,3-dione], under setting [1], the remaining activity at 1 µM is greater than 50%.

As to `O=C1CCC(N2C(=O)c3ccc(N4CCN(CCC5CCN(c6ncc(-c7ccc8c9cnccc9n(CC(F)(F)F)c8n7)cc6F)CC5)CC4)cc3C2=O)C(=O)N1` (stereo not drawn) [Compound 673, 2-(2,6-dioxopiperidin-3-yl)-5-(4-(2-(1-(3-fluoro-5-(9-(2,2,2-trifluoroethyl)-9H-pyrrolo[2,3-b:4,5-c′]dipyridin-2-yl)pyridin-2-yl)piperidin-4-yl)ethyl)piperazin-1-yl)isoindoline-1,3-dione], the remaining activity at 1 µM under setting [1] was less than 50%.

Turning to `Cn1c2ccncc2c2ccc(-c3ccc(O[C@H]4C[C@H](CN5CCC(CCCCCOc6ccc7c(c6)C(=O)N(C6CCC(=O)NC6=O)C7=O)CC5)C4)nc3)cc21` (stereo partly drawn) [Compound 393, 2-(2,6-dioxopiperidin-3-yl)-5-((5-(1-(((1r,3r)-3-((5-(5-methyl-5H-pyrido[4,3-b]indol-7-yl)pyridin-2-yl)oxy)cyclobutyl)methyl)piperidin-4-yl)pentyl)oxy) isoindoline-1,3-dione], under setting [1], the remaining activity at 1 µM is less than 50%.

With `O=C1CCC(N2C(=O)c3ccc(N4CCN(CCC5CCN(CCCn6c7ccccc7c7cnccc76)CC5)CC4)cc3C2=O)C(=O)N1` (stereo not drawn) [Compound 527, 5-(4-(2-(1-(3-(5H-pyrido[4,3-b]indol-5-yl)propyl)piperidin-4-yl)ethyl)piperazin-1-yl)-2-(2,6-dioxopiperidin-3-yl)isoindoline-1,3-dione], under setting [1], the remaining activity at 1 µM is less than 50%.

With `O=C1CCC(N2C(=O)c3cc(F)c(N4CCC(CN5CC6(C5)CN(C[C@H]5C[C@H](Oc7ccc(-c8ccc9c%10cnccc%10n(C(F)F)c9c8)cn7)C5)C6)CC4)cc3C2=O)C(=O)N1` (stereo partly drawn) [Compound 640, 5-(4-((6-(((1r,3r)-3-((5-(5-(difluoromethyl)-5H-pyrido[4,3-b]indol-7-yl)pyridin-2-yl)oxy)cyclobutyl)methyl)-2,6-diazaspiro[3.3]heptan-2-yl)methyl)piperidin-1-yl)-2-(2,6-dioxopiperidin-3-yl)-6-fluoroisoindoline-1,3-dione], under setting [2], the remaining activity at 1 µM was less than 50%.

`Cn1c2ccncc2c2ccc(-c3ccc(N4CCC(CN5CCN(c6ccc7c(c6)C(=O)N(C6CCC(=O)NC6=O)C7=O)CC5)CC4)nc3)cc21` (stereo not drawn) [Compound 390, 2-(2,6-dioxopiperidin-3-yl)-5-(4-[[1-(5-[5-methyl-5H-pyrido[4,3-b]indol-7-yl]pyridin-2-yl)piperidin-4-yl]methyl]piperazin-1-yl)-2,3-dihydro-1H-isoindole-1,3-dione]: the remaining activity at 1 µM under setting [1] was greater than 50%.
